{
  "source": "patent EP0485961A1",
  "about": "“Oncostatin M for stimulating LDL uptake and LDL receptor expression” (Bristol-Myers Squibb Company, priority 1990, dated 1992)",
  "format_in_all_cases": "cell-based, human",
  "key": {"HepG2 cells": {"test_system": "HepG2 cells", "test": "LDL uptake assay (fluorescent DiI-LDL method)", "details": "for LDL UPTAKE % STIMULATION: HepG2", "description": "LDL uptake in HepG2 cells cultured in 12 well plates (Costar) at 2 X 10^5 per well was assayed by the fluorescent LDL method using a fluorescence microscope and video camera (SIT 66) attached to computer (Laser 25) with JAVA image analysis software (Jandel Scientific, CA) as previously reported (Grove, et al.,). […] Specifically, 2 ug/ml Dil-LDL in serum free media was added to HepG2 monolayers for two hours. The monolayers were washed 3 times to remove free Dil-LDL and fixed with 4% formalin in phosphate-buffered saline. Accumulated fluorescence was measured by quantitating the average intensity of 25 - 50 cells. Three difference fields in each of duplicate or triplicate monolayers were quantitated and averaged. The amount of LDL protein taken up was determined as follows. Unfixed cell monolayers were solubilized with 0.1% sodium dodecyl sulfate, transferred into glass tubes, and the lipids (and Dil) were extracted into chloroform using the Bligh-Dyer extraction procedure. Fluorescence in the chloroform layer was quantitated with a fluorescence spectrophotometer (Perkin-Elmer) and compared with a standard curve generated by extracting Dil from known quantities of Dil-LDL. Coomassie blue kits (Pierce) were used to estimate cell proteins."}, "diacylglycerol": {"test_system": "diacylglycerol", "test": "Lipid analysis: diacylglycerol levels ([3H]-glycerol labelling, TLC)", "details": "genistein", "description": "Lipids from cells radiolabeled with [^32P]-orthophosphate or with (^3H]-glycerol were extracted by a modification of the method of Bligh and Dyer. Extracts, dried under a stream of nitrogen, were solublized with 100 ul of chloroform and spotted on thin-layer chromatography (TLC) plates (Silica Gel 60, Merck). The phospholipids were resolved either with a solvent system designed to separate the inositides (propanol: 4.3 M ammonium hydroxide, 65:35 v/v) or with a system designed to separate phosphatidylcholine and phosphatidylethanolamine (chloroform:methanol:acetic acid:water (50:35:8:1, v/v). Neutral lipids were resolved in a tank containing benzene:ethyl acetate (80:20, v/v). The radiolabeled phospholipids were identified as spots on autoradiographs which comigrated with authentic standards (detected with iodine vapors), were scraped into scintillation vials, and were quantitated in a scintillation counter. Neutral lipid standards (diacylglycerol and triacylglycerol) which were added to the [^3H)- glycerol labeled lipid extracts before chromatography were identified with iodine vapors, scraped into scintillation vials, and analyzed as outlined above."}, "[1]": {"test_system": "tyrosine phosphorylation in HepG2 proteins", "test": "Phosphotyrosine proteins (antiphosphotyrosine immunoblot)", "description": "HepG2 cells were plated into six well plates at 4 x 10^5 cells/well. After 48 hours (about 70% confluency), the cells were incubated with Oncostatin M or drugs for the indicated time, rapidly washed once with ice cold PBS, and lysed with 100ul of SDS-sample buffer containing 1 mM mercaptoethanol and 500 uM sodium vanadate. The bufer was rapidly mixed over the entire well before being removed and heated to 100° C for 15 minutes. The samples (25 ul) were separated by SDS-PAGE on 10-20% gradient gels and […] to Hybond C Extra membranes (Amersham). […] Proteins containing phosphotyrosine were detected using an affinity purified rabbit antiphosphotyrosine antibody followed by ['^251]-labeled protein A (ICN)."}},
  "data": [
    {"molecule": "O=c1c(-c2ccc(O)cc2)coc2cc(O)cc(O)c12", "note": "[Genistein]", "values": [
      {"measurement": "LDL UPTAKE % STIMULATION", "setting": "HepG2 cells", "result": -10, "unit": "%"},
      {"measurement": "effect on Oncostatin M-induced elevations in LDLR activity", "setting": "HepG2 cells; genistein", "result": "inhibited"},
      {"measurement": "effect on Oncostatin M-induced elevations in diacylglycerol", "setting": "diacylglycerol", "result": "inhibited"},
      {"measurement": "effect on Oncostatin M-induced tyrosine phosphorylation", "setting": "[1]; genistein 30 ug/ml, 30 minutes before Oncostatin M (100 ng/ml, 10 minutes)", "result": "mitigated"}
    ]},
    {"molecule": "CC1CNCCN1S(=O)(=O)c1cccc2cnccc12", "note": "(stereo not drawn) [H-7]", "values": [
      {"measurement": "effect on increase in LDL uptake induced by Oncostatin M", "setting": "HepG2 cells; 10 ug/ml H-7 for 30 min, then 4 hours Oncostatin M (100 ng/ml)", "result": "prevented the increases in LDL uptake"},
      {"measurement": "effect on increase in LDL uptake induced by PMA", "setting": "HepG2 cells; 10 ug/ml H-7 for 30 min, then 4 hours PMA (10 nM)", "result": "prevented the increases in LDL uptake"}
    ]},
    {"molecule": "CCCCCCCCCCCCCC(=O)O[C@@H]1[C@@H](C)[C@@]2(O)[C@@H](C=C(CO)C[C@]3(O)C(=O)C(C)=C[C@@H]23)[C@@H]2C(C)(C)[C@]12OC(C)=O", "note": "[PMA, phorbol 12-myristate 13-acetate]", "values": [
      {"measurement": "LDL uptake", "setting": "HepG2 cells; PMA 10 nM, 4 hours, time dependency similar to Oncostatin M", "result": "induced LDL uptake"},
      {"measurement": "effect on the inhibition of LDLR expression with genistein", "setting": "HepG2 cells; PMA 50 nM added to genistein-inhibited HepG2 cells", "result": "reversed"}
    ]},
    {"molecule": "vanadate", "values": [
      {"measurement": "LDL UPTAKE % STIMULATION", "setting": "HepG2 cells", "result": 6, "unit": "%"},
      {"measurement": "effect on LDLR expression stimulation by Oncostatin M", "setting": "HepG2 cells; vanadate with Oncostatin M", "result": "synergistically enhance"},
      {"measurement": "TYROSINE PHOSHORYLATION", "setting": "[1]; HepG2, grades - to + + + + +, legend not given", "result": "+ + +"},
      {"measurement": "effect on tyrosine kinase stimulation by Oncostatin M", "setting": "[1]; vanadate with Oncostatin M", "result": "synergistically enhance"}
    ]}
  ]
}
